Results reported in patent US6376497B1, “Antifungal azole derivatives having a fluorinated vinyl group and process for preparing same” (Korea Research Institute of Chemical Technology, priority 1999, dated 2002).
In brackets after ≈: the same amount, converted by molar mass.

Tests used:
Experiment in all cases: In vitro antifungal activity, microbroth dilution MIC
Format in all cases: cell-based
[1] = tested on: Aspergillus furnigatus B. 19119; conditions: 4 to 48 hours; for Minimal inhibitory concentration(MIC), A furnigatus B. 19119: RPMI-1640, 35° C., no growth observed; for Minimal inhibitory concentration (MIC): A furnigatus B. 19119, RPMI-1640, 35° C.
Outline: (§1)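 Broth microdilution adapted from NCCLS M27, in RPMI-1640 with 0.165 M MOPS, pH 7.0. Yeast or mould inoculum at 2×10^3 CFU/ml was mixed 1:1 with DMSO-derived compound solutions (200 to 0.10 μg/ml before mixing) and incubated at 35 °C for 4 to 48 h. MIC was the concentration showing no growth.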

[2] = tested on: Aspergillus niger A. 16404; conditions: 4 to 48 hours; for Minimal inhibitory concentration(MIC), A. niger A. 16404: RPMI-1640, 35° C., no growth observed; for Minimal inhibitory concentration (MIC): A. niger A. 16404, RPMI-1640, 35° C.
Outline: as §1

[3] = tested on: Candida albicans A. 10231; conditions: 4 to 48 hours; for Minimal inhibitory concentration(MIC), C. albicans A. 10231: RPMI-1640, 35° C., no growth observed; for Minimal inhibitory concentration (MIC): C. albicans A. 10231, RPMI-1640, 35° C.
Outline: as §1

[4] = tested on: Candida albicans C1-2; conditions: 4 to 48 hours; for Minimal inhibitory concentration(MIC), C. albicans C1-2: RPMI-1640, 35° C., no growth observed; for Minimal inhibitory concentration (MIC): C. albicans C1-2, RPMI-1640, 35° C.
Outline: as §1

[5] = tested on: Candida albicans IFO. 1385; conditions: 4 to 48 hours; for Minimal inhibitory concentration(MIC), C. albicans IFO. 1385: RPMI-1640, 35° C., no growth observed; for Minimal inhibitory concentration (MIC): C. albicans IFO. 1385, RPMI-1640, 35° C.
Outline: as §1

[6] = tested on: Candida krusei K. 11655; conditions: 4 to 48 hours; for Minimal inhibitory concentration(MIC), C. krusei K. 11655: RPMI-1640, 35° C., no growth observed; for Minimal inhibitory concentration (MIC): C. krusei K. 11655, RPMI-1640, 35° C.
Outline: as §1

[7] = tested on: Candida parapsitosis A. 7330; conditions: 4 to 48 hours; for Minimal inhibitory concentration(MIC), C. parapsitosis A. 7330: RPMI-1640, 35° C., no growth observed; for Minimal inhibitory concentration (MIC): C. parapsitosis A. 7330, RPMI-1640, 35° C.
Outline: as §1

[8] = tested on: Candida pseudotropicalis K. 11658; conditions: 4 to 48 hours; for Minimal inhibitory concentration(MIC), C. pseudotropicalis K. 11658: RPMI-1640, 35° C., no growth observed; for Minimal inhibitory concentration (MIC): C. pseudotropicalis K. 11658, RPMI-1640, 35° C.
Outline: as §1

[9] = tested on: Candida tropicalis A. 13803; conditions: 4 to 48 hours; for Minimal inhibitory concentration(MIC), C. tropicalis A. 13803: RPMI-1640, 35° C., no growth observed; for Minimal inhibitory concentration (MIC): C. tropicalis A. 13803, RPMI-1640, 35° C.
Outline: as §1

[10] = tested on: Cryptococcus neoformans A. 34144; conditions: 4 to 48 hours; for Minimal inhibitory concentration(MIC), Cry. neoformans A. 34144: RPMI-1640, 35° C., no growth observed; for Minimal inhibitory concentration (MIC): Cry. neoformans A. 34144, RPMI-1640, 35° C.
Outline: as §1

[11] = tested on: Cryptococcus neoformans B. 42419; conditions: 4 to 48 hours; for Minimal inhibitory concentration(MIC), Cry. neoformans B. 42419: RPMI-1640, 35° C., no growth observed; for Minimal inhibitory concentration (MIC): Cry. neoformans B. 42419, RPMI-1640, 35° C.
Outline: as §1

[12] = tested on: Cryptococcus neoformans IFM. 40092; conditions: 4 to 48 hours; for Minimal inhibitory concentration(MIC), Cry. neoformans IFM. 40092: RPMI-1640, 35° C., no growth observed; for Minimal inhibitory concentration (MIC): Cry. neoformans IFM. 40092, RPMI-1640, 35° C.
Outline: as §1

[13] = tested on: Torulopsis glabrata B. 16205; conditions: 4 to 48 hours; for Minimal inhibitory concentration(MIC), T. glabrata B. 16205: RPMI-1640, 35° C., no growth observed; for Minimal inhibitory concentration (MIC): T. glabrata B. 16205, RPMI-1640, 35° C.
Outline: as §1

[14] = tested on: Trichophyton mentagrophytes A. 9129; conditions: 4 to 48 hours; for Minimal inhibitory concentration(MIC), T. mentagrophytes A. 9129: RPMI-1640, 35° C., no growth observed; for Minimal inhibitory concentration (MIC): T. mentagrophytes A. 9129, RPMI-1640, 35° C.
Outline: as §1

[15] = tested on: Trichophyton mentagrophytes B. 32663; conditions: 4 to 48 hours; for Minimal inhibitory concentration(MIC), T. mentagrophytes B. 32663: RPMI-1640, 35° C., no growth observed; for Minimal inhibitory concentration (MIC): T. mentagrophytes B. 32663, RPMI-1640, 35° C.
Outline: as §1

| SMILES | Minimal inhibitory concentration(MIC), A furnigatus B. 19119 [1] [µg/mL] | Minimal inhibitory concentration(MIC), A. niger A. 16404 [2] [µg/mL] | Minimal inhibitory concentration(MIC), C. albicans A. 10231 [3] [µg/mL] | Minimal inhibitory concentration(MIC), C. albicans C1-2 [4] [µg/mL] | Minimal inhibitory concentration(MIC), C. albicans IFO. 1385 [5] [µg/mL] | Minimal inhibitory concentration(MIC), C. krusei K. 11655 [6] [µg/mL] | Minimal inhibitory concentration(MIC), C. parapsitosis A. 7330 [7] [µg/mL] | Minimal inhibitory concentration(MIC), C. pseudotropicalis K. 11658 [8] [µg/mL] | Minimal inhibitory concentration(MIC), C. tropicalis A. 13803 [9] [µg/mL] | Minimal inhibitory concentration(MIC), Cry. neoformans A. 34144 [10] [µg/mL] | Minimal inhibitory concentration(MIC), Cry. neoformans B. 42419 [11] [µg/mL] | Minimal inhibitory concentration(MIC), Cry. neoformans IFM. 40092 [12] [µg/mL] | Minimal inhibitory concentration(MIC), T. glabrata B. 16205 [13] [µg/mL] | Minimal inhibitory concentration(MIC), T. mentagrophytes A. 9129 [14] [µg/mL] | Minimal inhibitory concentration(MIC), T. mentagrophytes B. 32663 [15] [µg/mL] | Minimal inhibitory concentration (MIC) [1] [µg/mL] | Minimal inhibitory concentration (MIC) [2] [µg/mL] | Minimal inhibitory concentration (MIC) [3] [µg/mL] | Minimal inhibitory concentration (MIC) [4] [µg/mL] | Minimal inhibitory concentration (MIC) [5] [µg/mL] | further results |
| --- | --- | --- | --- | --- | --- | --- | --- | --- | --- | --- | --- | --- | --- | --- | --- | --- | --- | --- | --- | --- | --- |
| FC(=C(c1ccc(Cl)cc1)C(F)(F)F)N1CCN(c2ccc(OCC3COC(Cn4ccnc4)(c4ccc(Cl)cc4Cl)O3)cc2)CC1 (mixture of isomers) [Ex. 134] | >100 | >100 | >100 | >100 | 1.56 | 1.56 | 3.13 | 1.56 | >100 | 0.39 | 0.78 | 0.20 | >100 | 6.25 | 1.56 |  |  |  |  |  |  |
| Cc1cc(C)c(C=C(F)OCC2COC(Cn3ccnc3)(c3ccc(F)cc3F)O2)cc1C (mixture of isomers) [Ex. 42] |  |  |  |  |  |  |  |  |  |  |  |  |  |  |  | 12.5 | 100 | 12.5 | 12.5 | 0.78 | Minimal inhibitory concentration (MIC) [6]: 25.0 µg/mL; Minimal inhibitory concentration (MIC) [7]: 25.0 µg/mL; Minimal inhibitory concentration (MIC) [8]: 25.0 µg/mL; Minimal inhibitory concentration (MIC) [9]: 25.0 µg/mL; Minimal inhibitory concentration (MIC) [10]: 0.78 µg/mL; Minimal inhibitory concentration (MIC) [11]: 0.78 µg/mL; Minimal inhibitory concentration (MIC) [12]: ≦0.10 μg/ml; Minimal inhibitory concentration (MIC) [13]: 6.25 µg/mL; Minimal inhibitory concentration (MIC) [14]: 6.25 µg/mL; Minimal inhibitory concentration (MIC) [15]: 1.56 µg/mL |
| FC(Oc1ccc(OCC2COC(Cn3ccnc3)(c3ccc(F)cc3F)O2)cc1)=C(c1cccc(F)c1)C(F)(F)F (mixture of isomers) [Ex. 115] | >100 | >100 | 25.0 | 25.0 | 1.56 | >100 | >100 | >100 | 100 | 1.56 | 3.13 | 0.39 | 50.0 | 6.25 | 3.13 |  |  |  |  |  |  |
| Cc1cc(C=C(F)OCC2COC(Cn3ccnc3)(c3ccc(Cl)cc3Cl)O2)ccc1Cl (stereo not drawn) [Ex. 17] |  |  |  |  |  |  |  |  |  |  |  |  |  |  |  | 6.25 (≈ 12.6 µM) | 12.5 (≈ 25.1 µM) | 12.5 (≈ 25.1 µM) | 12.5 (≈ 25.1 µM) | 0.78 (≈ 1.57 µM) | Minimal inhibitory concentration (MIC) [6]: 12.5 µg/mL (≈ 25.1 µM); Minimal inhibitory concentration (MIC) [7]: 50.0 µg/mL (≈ 100 µM); Minimal inhibitory concentration (MIC) [8]: 6.25 µg/mL (≈ 12.6 µM); Minimal inhibitory concentration (MIC) [9]: 12.5 µg/mL (≈ 25.1 µM); Minimal inhibitory concentration (MIC) [10]: 1.56 µg/mL (≈ 3.13 µM); Minimal inhibitory concentration (MIC) [11]: 1.56 µg/mL (≈ 3.13 µM); Minimal inhibitory concentration (MIC) [12]: 0.20 µg/mL (≈ 0.402 µM); Minimal inhibitory concentration (MIC) [13]: 6.25 µg/mL (≈ 12.6 µM); Minimal inhibitory concentration (MIC) [14]: 12.5 µg/mL (≈ 25.1 µM); Minimal inhibitory concentration (MIC) [15]: 3.13 µg/mL (≈ 6.29 µM) |
